# From US6143769A, “Phenylacetic acid benzylamides” (Karl Thomae GmbH, priority 1983, dated 2000)
# Like-named read-outs stand apart in the source and are kept apart here.
# Tests used:
# glucose [1] = test: Study 4: whole blood glucose, AG-EE 623 ZW spray-dried tablets; format: in vivo, human
# Description: Blood samples were taken at different times.
# rats = test: Acute toxicity of (S)-enantiomer, single oral dose 1000 mg/kg, rats; format: in vivo; conditions: 1000 mg/kg p.o.
# blood sugar = test: Blood sugar-lowering effect of the enantiomers in fasted female rats (oral); format: in vivo
# Procedure: The substances to be investigated were suspended in 1.5% methylcellulose immediately before the start of the test and administered into the oesophagus. […] Glucose was measured in the supernatant by the hexokinase method using an analytical photometer. The statistical evaluation was carried out using the Student's t-test with p=0.05 as the limit of significance. Table 1 which follows contains the statistically significant values as percentage deviations from the control: […]
# glucose [2] = test: Study 3: whole blood glucose, single fasting test subject, crossover; format: in vivo, human
# [3] = Study 3: plasma concentration of active substance, single test subject; format: in vivo, human
# clinical [4] = conditions: human, plasma, 1 mg
# Procedure: (§1) More specifically, the studies which follow were carried out on healthy male volunteers in whom the levels of glucose and active substance in the course of time were determined:
# (§2) In the interests of more precise clarification, study 5 was carried out (randomised, open, crossover). […] 2 hours after administration a standard breakfast (B) was eaten, 5 hours after administration a standard lunch (L) was eaten and 10 hours after administration a standard dinner (D) was eaten. Blood samples were taken at different times. The glucose concentrations were measured in the plasma as in study 1. […] The plasma concentrations of AG-EE 624 ZW were calculated as the difference between the two concentrations found:
# [5] = after administration of racemate
# Procedure: as §1, §2
# clinical [6] = conditions: human, plasma, po
# Procedure: as §1
# (§3) 0.25 hours after oral administration a standard breakfast (B) was eaten, 5.5 hours after administration a standard lunch (L) was eaten and 10 hours after administration a standard evening meal (D) was eaten. Blood samples were taken at different times. The glucose concentrations were determined from whole blood according to study 1. The AG-EE 623 ZW concentrations in the plasma were determined by a stereospecific competitive enzyme immunoassay (ELISA) with a detection limit of 0.5 ng/ml.
# (§4) The AG-EE 623 ZW-specific ELISA used is based on polyclonal rabbit antibodies directed against AG-EE 623 ZW covalently bound to human serum albumin. The cross reaction with AG-EE 624 ZW is less than 1:100. Microtitre immunoplates were coated with these antibodies and, after washing and blocking of the plates, incubated with standard or unknown plasma samples at 4° C. for one hour with shaking. Then AG-EE 623 ZW coupled to horse-radish peroxidase was added and incubated for a further 4 hours under the same conditions. 1,2-phenylenediamine was used as substrate for photometrically quantifying the bound enzyme-coupled molecules.
# [7] = for Maximum concentration: 2 mg tablet p.o.
# Procedure: as §1, §3, §4
smiles,measurement,setting,value
"CCOc1cc(CC(=O)N[C@@H](CC(C)C)c2ccccc2N2CCCCC2)ccc1C(=O)O [AG-EE 623 ZW, (S)(+)-2-ethoxy-4-[N-[1-(2-piperidino-phenyl)-3-methyl-1-butyl]aminocarbonylmethyl]-benzoic acid]",Glucose (mean),"glucose [1]; 0.5 mg tablet, 0 h",5.21 mmol/L
same,Glucose (mean),"glucose [1]; 0.5 mg, 0.25 h (breakfast)",5.09 mmol/L
same,Glucose (mean),"glucose [1]; 0.5 mg, 0.50 h",5.01 mmol/L
same,Glucose (mean),"glucose [1]; 0.5 mg, 0.75 h",5.85 mmol/L
same,Glucose (mean),"glucose [1]; 0.5 mg, 1.00 h",5.88 mmol/L
same,Glucose (mean),"glucose [1]; 0.5 mg, 1.50 h",4.05 mmol/L
same,Glucose (mean),"glucose [1]; 0.5 mg, 2.09 h (so in the source)",3.50 mmol/L
same,Glucose (mean),"glucose [1]; 0.5 mg, 3.00 h",3.90 mmol/L
same,Glucose (mean),"glucose [1]; 0.5 mg, 4.00 h",4.08 mmol/L
same,Glucose (mean),"glucose [1]; 0.5 mg, 5.00 h",4.32 mmol/L
same,Glucose (mean),"glucose [1]; 0.5 mg, 6.00 h",6.63 mmol/L
same,Glucose (mean),"glucose [1]; 0.5 mg, 8.00 h",5.61 mmol/L
same,Glucose (mean),"glucose [1]; 0.5 mg, 10.00 h (dinner)",4.81 mmol/L
same,Glucose (mean),"glucose [1]; 0.5 mg, 24.00 h",4.82 mmol/L
same,Time of peak blood sugar lowering,glucose [1]; 1 mg and 2 mg tablet,1.5 h
same,Duration of blood sugar lowering,glucose [1]; 1 mg tablet,up to 2 hours
same,Start of blood sugar lowering,glucose [1]; 1 mg tablet,1.0 h
same,Glucose (mean),"glucose [1]; 1 mg tablet, 0 h",4.62 mmol/L
same,Glucose (mean),"glucose [1]; 1 mg, 0.25 h (breakfast)",4.62 mmol/L
same,Glucose (mean),"glucose [1]; 1 mg, 0.50 h",4.57 mmol/L
same,Glucose (mean),"glucose [1]; 1 mg, 0.75 h",5.36 mmol/L
same,Glucose (mean),"glucose [1]; 1 mg, 1.00 h",4.72 mmol/L
same,Glucose (mean),"glucose [1]; 1 mg, 1.50 h",2.98 mmol/L
same,Glucose (mean),"glucose [1]; 1 mg, 2.09 h (so in the source)",3.20 mmol/L
same,Glucose (mean),"glucose [1]; 1 mg, 3.00 h",3.69 mmol/L
same,Glucose (mean),"glucose [1]; 1 mg, 4.00 h",4.05 mmol/L
same,Glucose (mean),"glucose [1]; 1 mg, 5.00 h",3.94 mmol/L
same,Glucose (mean),"glucose [1]; 1 mg, 6.00 h",6.48 mmol/L
same,Glucose (mean),"glucose [1]; 1 mg, 8.00 h",5.37 mmol/L
same,Glucose (mean),"glucose [1]; 1 mg, 10.00 h (dinner)",4.57 mmol/L
same,Glucose (mean),"glucose [1]; 1 mg, 24.00 h",4.69 mmol/L
same,Duration of blood sugar lowering,glucose [1]; 2 mg tablet,≤ 5 h
same,Start of blood sugar lowering,glucose [1]; 2 mg tablet,0.75 h
same,Glucose (mean),"glucose [1]; 2 mg tablet, 0 h",4.67 mmol/L
same,Glucose (mean),"glucose [1]; 2 mg, 0.25 h (breakfast)",5.14 mmol/L
same,Glucose (mean),"glucose [1]; 2 mg, 0.50 h",4.38 mmol/L
same,Glucose (mean),"glucose [1]; 2 mg, 0.75 h",4.54 mmol/L
same,Glucose (mean),"glucose [1]; 2 mg, 1.00 h",4.27 mmol/L
same,Glucose (mean),"glucose [1]; 2 mg, 1.50 h",2.65 mmol/L
same,Glucose (mean),"glucose [1]; 2 mg, 2.09 h (so in the source)",2.74 mmol/L
same,Glucose (mean),"glucose [1]; 2 mg, 3.00 h",3.07 mmol/L
same,Glucose (mean),"glucose [1]; 2 mg, 4.00 h",3.64 mmol/L
same,Glucose (mean),"glucose [1]; 2 mg, 5.00 h",3.88 mmol/L
same,Glucose (mean),"glucose [1]; 2 mg, 6.00 h",6.47 mmol/L
same,Glucose (mean),"glucose [1]; 2 mg, 8.00 h",4.61 mmol/L
same,Glucose (mean),"glucose [1]; 2 mg, 10.00 h (dinner)",4.45 mmol/L
same,Glucose (mean),"glucose [1]; 2 mg, 24.00 h",4.77 mmol/L
same,Toxicity,rats,virtually non-toxic
same,Deaths,"rats; 5 male and 5 female rats, 14 days",no animals died
same,"Glucose, percentage deviation from control","blood sugar; 0.015 mg/kg p.o., 1 h",-17 percentage deviation
same,"Glucose, percentage deviation from control","blood sugar; 0.015 mg/kg p.o., 2 h",-36 percentage deviation
same,"Glucose, percentage deviation from control","blood sugar; 0.015 mg/kg p.o., 3 h",-37 percentage deviation
same,"Glucose, percentage deviation from control","blood sugar; 0.015 mg/kg p.o., 4 h",-32 percentage deviation
same,"Glucose, percentage deviation from control","blood sugar; 0.015 mg/kg p.o., 5 h",-35 percentage deviation
same,"Glucose, percentage deviation from control","blood sugar; 0.015 mg/kg p.o., 6 h",-35 percentage deviation
same,Blood sugar-lowering effect (in words),blood sugar; rat,effective enantiomer
same,Duration of effect,"blood sugar; rat, 0.015 mg/kg p.o.",> 6 h
same,Maximum lowering of blood glucose,glucose [2]; 2 mg,-43%
same,Onset of effect,glucose [2]; 2 mg,0.5 h
same,Time of maximum blood sugar reduction,glucose [2]; 2 mg,1.5 h
same,"Glucose, deviation against t = 0","glucose [2]; 2 mg capsule, 0 h",0%
same,"Glucose, deviation against t = 0","glucose [2]; 2 mg, 0.50 h",-10%
same,"Glucose, deviation against t = 0","glucose [2]; 2 mg, 0.75 h",-14%
same,"Glucose, deviation against t = 0","glucose [2]; 2 mg, 1.00 h",-18%
same,"Glucose, deviation against t = 0","glucose [2]; 2 mg, 1.25 h",-29%
same,"Glucose, deviation against t = 0","glucose [2]; 2 mg, 1.50 h",-43%
same,"Glucose, deviation against t = 0","glucose [2]; 2 mg, 1.75 h",-40%
same,"Glucose, deviation against t = 0","glucose [2]; 2 mg, 2.00 h",-33%
same,"Glucose, deviation against t = 0","glucose [2]; 2 mg, 2.50 h",-33%
same,"Glucose, deviation against t = 0","glucose [2]; 2 mg, 3.00 h",-31%
same,"Glucose, deviation against t = 0","glucose [2]; 2 mg, 4.00 h",-20%
same,"Glucose, deviation against t = 0","glucose [2]; 2 mg, 5.00 h",-22%
same,"Glucose, deviation against t = 0","glucose [2]; 2 mg, 6.00 h",-28%
same,"Glucose, deviation against t = 0","glucose [2]; 2 mg, 7.00 h",-22%
same,"Glucose, deviation against t = 0","glucose [2]; 2 mg, 8.00 h",-26%
same,Maximum level relative to level after same dose of AG-EE 388 ZW,[3]; 2 mg,about one third
same,Maximum concentration,"[3]; 2 mg capsule, listed as 623",24 ng/mL
same,Active substance concentration,"[3]; 2 mg, 1.25 h",0 ng/mL
same,Active substance concentration,"[3]; 2 mg, 2.50 h",0 ng/mL
same,Active substance concentration,"[3]; 2 mg, 3.00 h",0 ng/mL
same,Active substance concentration,"[3]; 2 mg, 3.50 h",0 ng/mL
same,Active substance concentration,"[3]; 2 mg, 4.00 h",0 ng/mL
same,Active substance concentration,"[3]; 2 mg, 6.00 h",0 ng/mL
same,Active substance concentration,"[3]; 2 mg, 7.00 h",0 ng/mL
same,Cmax,"[3]; human, plasma, po, 2 mg, 2 mg capsule, read-out: Maximum concentration",22 to 24 ng/mL
same,concentration at 1.5 h,"[3]; human, plasma, po, 2 mg, 1.50 h",22 ng/mL
same,concentration at 1.75 h,"[3]; human, plasma, po, 2 mg, 1.75 h",24 ng/mL
same,concentration at 2 h,"[3]; human, plasma, po, 2 mg, 2.00 h",7 ng/mL
same,MRT,clinical [4]; iv,54 ± 36 min
same,clearance,clinical [4]; iv,443 ± 140 mL/min
same,bioavailability,clinical [4]; po,76 ± 20%
same,Elimination (comparison),[5],"eliminated more rapidly than the ineffective enantiomer, AG-EE 624 ZW"
same,Tmax,clinical [6],30 min
same,AUC(0-inf),clinical [6]; 0.5 mg,14.3 ± 8.6 ng·h/mL
same,Cmax,clinical [6]; 0.5 mg,15 ± 8 ng/mL
same,MRT,clinical [6]; 0.5 mg,54 ± 12 min
same,Tmax,clinical [6]; 0.5 mg,36 ± 6 min
same,concentration at 0.25 h,clinical [6]; 0.5 mg,8.4 ng/mL
same,concentration at 0.5 h,clinical [6]; 0.5 mg,4.7 ng/mL
same,concentration at 0.75 h,clinical [6]; 0.5 mg,1.6 ng/mL
same,concentration at 1 h,clinical [6]; 0.5 mg,7 ng/mL
same,concentration at 1.5 h,clinical [6]; 0.5 mg,2.6 ng/mL
same,concentration at 2.09 h,clinical [6]; 0.5 mg,1.2 ng/mL
same,concentration at 3 h,clinical [6]; 0.5 mg,0.3 ng/mL
same,half-life,clinical [6]; 0.5 mg,30 ± 12 min
same,concentration at 0.25 h,clinical [6]; 1 mg,14.5 ng/mL
same,concentration at 0.5 h,clinical [6]; 1 mg,27.9 ng/mL
same,concentration at 0.75 h,clinical [6]; 1 mg,24.2 ng/mL
same,concentration at 1 h,clinical [6]; 1 mg,15.3 ng/mL
same,concentration at 1.5 h,clinical [6]; 1 mg,7.8 ng/mL
same,concentration at 2.09 h,clinical [6]; 1 mg,4.7 ng/mL
same,concentration at 3 h,clinical [6]; 1 mg,1.4 ng/mL
same,concentration at 0.25 h,clinical [6]; 2 mg,24.1 ng/mL
same,concentration at 0.5 h,clinical [6]; 2 mg,50.4 ng/mL
same,concentration at 0.75 h,clinical [6]; 2 mg,41.1 ng/mL
same,concentration at 1 h,clinical [6]; 2 mg,29.9 ng/mL
same,concentration at 1.5 h,clinical [6]; 2 mg,13.5 ng/mL
same,concentration at 2.09 h,clinical [6]; 2 mg,8.8 ng/mL
same,concentration at 3 h,clinical [6]; 2 mg,4.3 ng/mL
same,concentration at 4 h,clinical [6]; 2 mg,1.5 ng/mL
same,concentration at 5 h,clinical [6]; 2 mg,0.4 ng/mL
same,concentration at 6 h,clinical [6]; 2 mg,0.2 ng/mL
same,Concentration (mean),"[7]; 0.5 mg tablet, 0 h",0.0 ng/mL
same,Concentration (mean),"[7]; 0.5 mg, 4.00 h",0.0 ng/mL
same,Concentration (mean),"[7]; 0.5 mg, 5.00 h",0.0 ng/mL
same,Concentration (mean),"[7]; 0.5 mg, 6.00 h",0.0 ng/mL
same,Concentration (mean),"[7]; 0.5 mg, 8.00 h",0.0 ng/mL
same,Concentration (mean),"[7]; 0.5 mg, 10.00 h",0.0 ng/mL
same,Concentration (mean),"[7]; 0.5 mg, 24.00 h",0.0 ng/mL
same,Time at which plasma level is below detection limit,[7]; 1 mg tablet,3.0 h
same,Concentration (mean),"[7]; 1 mg tablet, 0 h",0.0 ng/mL
same,Concentration (mean),"[7]; 1 mg, 8.00 h",0.0 ng/mL
same,Concentration (mean),"[7]; 1 mg, 10.00 h",0.0 ng/mL
same,Concentration (mean),"[7]; 1 mg, 24.00 h",0.0 ng/mL
same,Time at which plasma level is below detection limit,[7]; 2 mg tablet,4.0 h
same,Maximum concentration,[7],50.4 ± 26.3 ng/mL
same,Maximum concentration,[7]; listed as 623,50 ± 26 ng/mL
same,Concentration (mean),"[7]; 2 mg tablet, 0 h",0.0 ng/mL
same,Concentration (mean),"[7]; 2 mg, 8.00 h",0.0 ng/mL
same,Concentration (mean),"[7]; 2 mg, 10.00 h",0.0 ng/mL
same,Concentration (mean),"[7]; 2 mg, 24.00 h",0.0 ng/mL
same,Fall of plasma levels (comparison),"[7]; versus AG-EE 388 ZW, identical dose",fall more rapidly towards zero than the AG-EE 388 ZW levels
